How the values were obtained:
Rhizoctonia solani = experiment: Rice sheath blight; format: in vivo; set-up: scale not given here; conditions: inoculated two days later, rated after 7 days, average of five plants; for Disease Control Rating at 0.02 mg/mL: foliage and soil sprayed with 0.02 mg/mL; for Disease Control Rating at 0.1 mg/mL: foliage and soil sprayed with 0.1 mg/mL; for Disease Control Rating at 0.5 mg/mL: foliage and soil sprayed with 0.5 mg/mL
Method in brief: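 Rice plants 11–15 days old had foliage and soil sprayed with 0.5, 0.1 or 0.02 mg/mL Compound A in water/acetone/Tween 20, then kept in flooded trays. Two days later, rice-grain Rhizoctonia solani inoculum went to plant bases; disease control scored versus untreated after 7 days at 25 °C, high humidity, averaging five plants.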

succinate dehydrogenase = target: T1, succinate dehydrogenase (Botrytis cinerea, UniProt A0A384J5E4+A0A384J8V8+A0A384JHJ5); experiment: Enzyme inhibition: succinate dehydrogenase activity in Botrytis cinerea mitochondria (DCPIP reduction); format: biochemical; conditions: concentration required to inhibit the rate of DCPIP reduction by 50%; Botrytis cinerea isolate Nick mitochondria; read-out: I50 (μM conc.)
T1 construct: succinate-DCPIP reductase assay with KCN
Method in brief: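 Crude mitochondria from Botrytis cinerea isolate Nick mycelia, prepared by bead-beating and differential centrifugation, started reactions. SDH activity followed as DCPIP reduction at 600 nm in 50 mM K-phosphate pH 7.2 with 1 mM KCN, 45 μM DCPIP, 17 mM succinate, 1% acetone. I50 from semilog inhibition plots, corrected for succinate-free rates.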

Botrytis cinerea [1] = experiment: Vine grey mold (grape berries); format: in vivo; conditions: average of six berries, 7-10 days; for pest or weed control at 50 ppm: grape berries treated with 50 ppm, read-out: % DISEASE CONTROL 50 ppm; for pest or weed control at 200 ppm: grape berries treated with 200 ppm, read-out: % DISEASE CONTROL 200 ppm
Method in brief: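 Preventive berry test: compound at 50 or 200 ppm (acetone/water, 0.05% Tween 20) applied one day before inoculation with 10^6 spores/mL Botrytis conidia. After 7-10 days at 20 °C under 12 h light, infected surface area rated; disease control expressed as percent reduction from control mean; repeated-test values averaged.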

Botrytis cinerea [2] = experiment: Eggplant grey mold; format: in vivo; set-up: scale not given here; conditions: inoculated 24 h later, rated after 3-4 days; for Disease Control Rating at 20 ppm: eggplant sprayed with 20 ppm; for Disease Control Rating at 100 ppm: eggplant sprayed with 100 ppm; for Disease Control Rating at 500 ppm: eggplant sprayed with 500 ppm
Method in brief: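 Protective test: compound formulations (2:3 acetone:water, 0.5% Tween 20; 500, 100 or 20 ppm) sprayed on 14-18-day-old plants, with spore inoculum (4×10^6 spore/mL) applied a day later. Disease control rated on Botrytis lesions after 3-4 days at 23 °C and 100% humidity.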

T1 sequence (A0A384J5E4 1-300): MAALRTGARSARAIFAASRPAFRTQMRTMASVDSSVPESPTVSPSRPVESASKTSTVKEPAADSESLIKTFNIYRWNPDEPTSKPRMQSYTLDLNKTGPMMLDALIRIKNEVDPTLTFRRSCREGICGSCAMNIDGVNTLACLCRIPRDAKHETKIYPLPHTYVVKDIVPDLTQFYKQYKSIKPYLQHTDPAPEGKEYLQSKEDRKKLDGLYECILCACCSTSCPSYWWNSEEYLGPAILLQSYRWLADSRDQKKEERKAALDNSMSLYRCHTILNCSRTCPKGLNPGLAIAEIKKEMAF
T1 sequence (A0A384J8V8 1-189): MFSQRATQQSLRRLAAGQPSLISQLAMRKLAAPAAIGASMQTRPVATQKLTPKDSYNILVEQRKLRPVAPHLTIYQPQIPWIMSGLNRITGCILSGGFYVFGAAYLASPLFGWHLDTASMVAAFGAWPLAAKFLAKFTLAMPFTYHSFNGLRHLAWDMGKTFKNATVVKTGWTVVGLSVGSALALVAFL
T1 sequence (A0A384JHJ5 1-192): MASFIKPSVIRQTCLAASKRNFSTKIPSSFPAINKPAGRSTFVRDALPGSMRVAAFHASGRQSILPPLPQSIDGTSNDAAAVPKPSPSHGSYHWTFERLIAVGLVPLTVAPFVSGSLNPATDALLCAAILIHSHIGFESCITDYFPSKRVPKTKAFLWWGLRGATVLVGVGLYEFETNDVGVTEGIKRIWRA
T1 sequence (A0A384K456 1-647 partner): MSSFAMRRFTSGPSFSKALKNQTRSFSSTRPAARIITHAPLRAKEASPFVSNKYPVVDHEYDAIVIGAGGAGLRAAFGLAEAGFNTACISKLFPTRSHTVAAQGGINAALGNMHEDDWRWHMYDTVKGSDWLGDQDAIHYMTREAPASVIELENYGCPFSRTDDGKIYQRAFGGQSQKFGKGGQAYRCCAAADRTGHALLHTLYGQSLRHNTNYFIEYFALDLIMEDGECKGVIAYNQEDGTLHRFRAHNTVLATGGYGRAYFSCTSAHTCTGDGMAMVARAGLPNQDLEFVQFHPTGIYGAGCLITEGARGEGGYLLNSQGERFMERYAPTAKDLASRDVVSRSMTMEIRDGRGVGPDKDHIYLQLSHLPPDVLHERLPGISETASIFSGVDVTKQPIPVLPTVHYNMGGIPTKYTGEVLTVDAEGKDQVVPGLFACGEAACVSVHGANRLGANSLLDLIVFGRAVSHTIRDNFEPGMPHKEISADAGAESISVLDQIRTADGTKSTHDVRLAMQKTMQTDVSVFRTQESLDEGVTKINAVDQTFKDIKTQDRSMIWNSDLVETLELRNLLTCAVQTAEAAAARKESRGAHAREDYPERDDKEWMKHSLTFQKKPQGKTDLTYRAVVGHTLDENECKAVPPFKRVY

| Structure (SMILES) | Disease Control Rating at 0.02 mg/mL (Rhizoctonia solani) | Disease Control Rating at 0.1 mg/mL (Rhizoctonia solani) | Disease Control Rating at 0.5 mg/mL (Rhizoctonia solani) | IC50 (succinate dehydrogenase) [µM] | pest or weed control at 50 ppm (Botrytis cinerea [1]) [%] | pest or weed control at 200 ppm (Botrytis cinerea [1]) [%] | Disease Control Rating at 20 ppm (Botrytis cinerea [2]) | Disease Control Rating at 100 ppm (Botrytis cinerea [2]) | Disease Control Rating at 500 ppm (Botrytis cinerea [2]) |
| --- | --- | --- | --- | --- | --- | --- | --- | --- | --- |
| Cn1cc(C(=O)Nc2ccccc2C2=CCC(C(C)(C)C)CC2)c(C(F)(F)F)n1 (stereo not drawn) [Example 133, 1H-pyrazole-4-carboxamide, N-[2-[4-(1, -dimethylethyl)-1-cyclohexen-1-yl]phenyl]-1-methyl-3-(trifluoromethyl)-] | 1 | 2 | 3 | 0.0046 | 39 | 36 | 0 | 0 | 1 |
| Cn1cc(C(=O)Nc2ccccc2C2CCC(C(C)(C)C)CC2)c(C(F)F)n1 (stereo not drawn) [Example 134] | 3 | 3 | 3 | 0.0047 | 66 | 61 | 1 | 1 | 2 |
| Cn1cc(C(=O)Nc2ccccc2C2CCC(C(C)(C)C)CC2)c(C(F)(F)F)n1 (stereo not drawn) [Example 135, 1H-pyrazole-4-carboxamide, N-[2-[4-(1,1-dimethylethyl)cyclohexyl]-phenyl]-1-methyl-3-(trifluoromethyl)-] | – | – | 3 | 0.01 | 52 | 66 | 1 | 1 | 2 |
| CC1=C(c2ccccc2NC(=O)c2cn(C)nc2C(F)(F)F)CCC1 [Example 137, 1H-pyrazole-4-carboxamide, 1-methyl-N-[2-(2-methyl-1-cyclopenten-1-yl)phenyl]-3-(trifluoromethyl)-] | 1 | 2 | 3 | 0.02 | 83 | 100 | 1 | 3 | 3 |
| CCC1CCCC(C)=C1c1ccccc1NC(=O)c1cn(C)nc1C(F)(F)F (stereo not drawn) [Example 138, 1H-pyrazole-4-carboxamide, N-[2-(6-ethyl-2-methyl-1-cyclohexen-1-yl)phenyl]-1-methyl-3-(trifluoromethyl)-] | – | – | 2 | 0.13 | 0 | 4 | 0 | 0 | 0 |
| Cn1cc(C(=O)Nc2ccccc2C2CC(C)(C)CC(C)(C)C2)c(C(F)(F)F)n1 [Example 139, 1H-pyrazole-4-carboxamide, 1-methyl-N-[2-(3,3,5,5-tetramethylcyclohexyl)phenyl]-3-(trifluoromethyl)-] | 2 | 2 | 3 | 0.032 | 2 | 1 | 0 | 0 | 0 |
| Cn1cc(C(=O)Nc2ccccc2C2CC(C)(C)CC(C)(C)C2)c(C(F)F)n1 [Example 140, 1H-pyrazole-4-carboxamide, 3-(difluoromethyl)-1-methyl-N-[2-(3,3,5,5-tetramethylcyclohexyl)-phenyl]-] | 0 | 2 | 3 | 0.039 | 16 | 12 | 0 | 1 | 1 |
| Cn1cc(C(=O)Nc2ccccc2C2=CCCCC2C(C)(C)C)c(C(F)(F)F)n1 (stereo not drawn) [Example 141, 1H-pyrazole-4-carboxamide, N-[2-[6-(1,1-dimethylethyl)-1-cyclohexen-1-yl]phenyl]-1-methyl-3-(trifluoromethyl)-] | – | – | 3 | 0.049 | 12 | 12 | 0 | 0 | 1 |
| Cn1cc(C(=O)Nc2ccccc2CC2CCCC2)c(C(F)(F)F)n1 [Example 142, 1H-pyrazole-4-carboxamide, N-[2-(cyclopentylmethyl)phenyl]-1-methyl-3-(trifluoromethyl)-] | – | – | 3 | 0.22 | 0 | 18 | 0 | 1 | 1 |
| Cn1cc(C(=O)Nc2ccccc2C=C2CCCCCC2)c(C(F)(F)F)n1 [Example 143, 1H-pyrazole-4-carboxamide, N-[2-(cycloheptylidenemethyl)phenyl]-1-methyl-3-(trifluoromethyl)-] | – | – | 3 | 0.025 | 33 | 36 | 0 | 0 | 0 |
| Cn1cc(C(=O)Nc2ccccc2C2=CCSCC2)c(C(F)F)n1 [Example 144, 1H-pyrazole-4-carboxamide, 3-(difluoromethyl)-N-[2-(5,6-dihydro-2H-thiopyran-4-yl)phenyl]-1-methyl-] | – | – | 3 | 0.037 | 15 | 37 | 0 | 0 | 1 |
| Cn1cc(C(=O)Nc2ccccc2CC2CCCCCC2)c(C(F)F)n1 [Example 145, 1H-pyrazole-4-carboxamide, 1-methyl-N-[2-(cycloheptylmethyl)-phenyl]-3-(difluoromethyl)-] | – | – | 3 | 0.025 | 0 | 0 | 0 | 0 | 0 |
| Cn1cc(C(=O)Nc2ccccc2CC2CCCCCC2)c(C(F)(F)F)n1 [Example 146, 1H-pyrazole-4-carboxamide, 1-methyl-N-[2-(cycloheptylmethyl)-phenyl]-3-(trifluoromethyl)-] | – | – | 1 | 0.053 | 0 | 0 | 0 | 0 | 1 |
| Cn1cc(C(=O)Nc2ccccc2C=C2CCCCCC2)c(C(F)F)n1 [Example 147, 1H-pyrazole-4-carboxamide, N-[2-(cycloheptylidenemethyl)phenyl]-1-methyl-3-(difluoromethyl)-] | – | – | 2 | 0.02 | 0 | 0 | 0 | 0 | 0 |
| CC1C=C(c2ccccc2NC(=O)c2cn(C)nc2C(F)(F)F)CC1 (stereo not drawn) [Example 148, 1H-pyrazole-4-carboxamide, N-[2-(3-methyl-1-cyclopenten-1-yl)phenyl]-1-methyl-3-(trifluoromethyl)-] | – | – | 3 | 0.027 | 37 | 99 | 0 | 2 | 2 |
| CC1CC=C(c2ccccc2NC(=O)c2cn(C)nc2C(F)F)C1 (stereo not drawn) [Example 149, 1H-pyrazole-4-carboxamide, N-[2-(4-methyl-1-cyclopenten-1-yl)phenyl]-1-methyl-3-(difluoromethyl)-] | – | – | 3 | 0.013 | 95 | 100 | 0 | 0 | 1 |
| CC1CC=C(c2ccccc2NC(=O)c2cn(C)nc2C(F)(F)F)C1 (stereo not drawn) [Example 150, 1H-pyrazole-4-carboxamide, N-[2-(4-methyl-1-cyclopenten-1-yl)phenyl]-1-methyl-3-(trifluoromethyl)-] | – | – | 3 | 0.026 | 40 | 100 | 0 | 0 | 2 |
